# Laboratory results taken from paper PMC9142520, “Molecular encoding and synaptic decoding of context during salt chemotaxis in C. elegans” (Nature Communications, 2022).
# Target: T1, GLR-1(+STG-1, SOL-1) (Caenorhabditis elegans, UniProt P34299)
# T1 construct: cRNAs of GLR-1, SOL-1 and STG-1 co-injected into Xenopus laevis oocytes; homomeric GLR-1 with auxiliary proteins; with CUB domain-containing protein SOL-1 (suppressor of lurcher 1); Stargazin-like protein STG-1
# T1 sequence (P34299 26-962): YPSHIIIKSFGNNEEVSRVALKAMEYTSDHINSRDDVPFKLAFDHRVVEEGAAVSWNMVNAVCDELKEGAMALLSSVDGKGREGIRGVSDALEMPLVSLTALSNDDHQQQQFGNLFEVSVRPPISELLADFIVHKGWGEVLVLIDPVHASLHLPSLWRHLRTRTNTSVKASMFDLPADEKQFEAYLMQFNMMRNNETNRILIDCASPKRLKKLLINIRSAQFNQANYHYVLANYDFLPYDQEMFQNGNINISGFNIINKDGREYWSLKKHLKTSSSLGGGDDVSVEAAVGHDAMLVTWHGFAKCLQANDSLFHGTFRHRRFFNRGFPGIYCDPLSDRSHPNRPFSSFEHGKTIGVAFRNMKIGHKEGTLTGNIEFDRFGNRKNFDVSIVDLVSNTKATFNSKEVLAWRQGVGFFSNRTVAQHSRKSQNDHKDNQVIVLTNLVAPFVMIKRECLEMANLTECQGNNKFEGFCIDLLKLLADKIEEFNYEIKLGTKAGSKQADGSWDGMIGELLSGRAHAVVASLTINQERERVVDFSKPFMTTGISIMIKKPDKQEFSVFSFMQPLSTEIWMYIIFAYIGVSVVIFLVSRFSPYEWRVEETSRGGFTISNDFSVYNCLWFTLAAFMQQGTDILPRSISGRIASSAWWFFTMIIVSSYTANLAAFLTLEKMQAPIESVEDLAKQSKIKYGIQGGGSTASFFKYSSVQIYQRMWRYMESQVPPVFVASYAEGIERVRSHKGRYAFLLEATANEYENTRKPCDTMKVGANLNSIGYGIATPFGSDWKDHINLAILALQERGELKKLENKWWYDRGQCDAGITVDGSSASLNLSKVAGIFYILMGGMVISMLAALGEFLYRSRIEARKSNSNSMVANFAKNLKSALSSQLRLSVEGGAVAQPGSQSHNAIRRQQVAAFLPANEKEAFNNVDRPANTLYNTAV
# T1 sequence (Q15KL0 1-366 partner): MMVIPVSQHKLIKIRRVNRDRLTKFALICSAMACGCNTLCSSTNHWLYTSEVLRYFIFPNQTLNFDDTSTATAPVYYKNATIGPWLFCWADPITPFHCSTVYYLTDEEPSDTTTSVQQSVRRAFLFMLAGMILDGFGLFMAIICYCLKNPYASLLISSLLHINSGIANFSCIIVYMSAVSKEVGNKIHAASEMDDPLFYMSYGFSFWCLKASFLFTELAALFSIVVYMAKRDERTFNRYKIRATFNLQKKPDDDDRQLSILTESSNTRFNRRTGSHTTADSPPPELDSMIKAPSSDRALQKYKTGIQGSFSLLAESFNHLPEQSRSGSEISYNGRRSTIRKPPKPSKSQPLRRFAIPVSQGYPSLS
# T1 sequence (Q93212 24-594 partner): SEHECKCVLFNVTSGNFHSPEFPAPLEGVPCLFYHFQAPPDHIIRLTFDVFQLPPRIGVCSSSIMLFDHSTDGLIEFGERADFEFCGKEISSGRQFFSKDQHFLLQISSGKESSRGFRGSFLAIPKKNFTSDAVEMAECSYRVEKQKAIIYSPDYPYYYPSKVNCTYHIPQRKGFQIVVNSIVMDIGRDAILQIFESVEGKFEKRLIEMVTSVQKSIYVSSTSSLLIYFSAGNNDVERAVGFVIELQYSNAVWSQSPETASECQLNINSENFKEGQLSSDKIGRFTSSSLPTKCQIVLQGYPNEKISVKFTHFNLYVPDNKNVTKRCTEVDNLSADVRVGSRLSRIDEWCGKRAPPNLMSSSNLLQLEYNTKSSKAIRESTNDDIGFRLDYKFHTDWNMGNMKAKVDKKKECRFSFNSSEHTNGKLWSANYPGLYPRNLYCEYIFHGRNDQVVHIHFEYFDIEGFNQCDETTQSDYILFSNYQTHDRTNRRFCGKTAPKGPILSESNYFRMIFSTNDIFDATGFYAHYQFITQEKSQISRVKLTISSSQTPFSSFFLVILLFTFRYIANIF
# Assay: two-electrode voltage clamp of Xenopus oocytes, glutamate dose-response current
# Format: cell-based
# Settings: agonist; inward cation current; with SOL-1 and STG-1; clamped -50 to -60 mV; pH 7.2; 0.1-10 mM glutamate for 20 s
smiles,measurement,value
N[C@@H](CCC(=O)O)C(=O)O [glutamate],"two-electrode voltage clamp of Xenopus oocytes, glutamate dose-response current",Dose-response relationship of GLR-1-expressing Xenopus oocyte
